# Experimental data taken from PMC11204760, “New Cyclic Pentapeptides from the Mangrove-Derived Aspergillus fumigatus GXIMD 03099” (Marine Drugs, 2024).
# Where a SMILES comes first, the peptide text is derived from it. [ ]: non-standard residue; d: D form. dNMeF = CN[C@H](Cc1ccccc1)C(=O)O; Pip = O=C(O)[C@@H]1CCCCN1; 2Abz = Nc1ccccc1C(=O)O; Abu = CC[C@H](N)C(=O)O
# Columns and labels:
# [1] = test system: newly hatched larvae of Culex quinquefasciatus; assay: Insecticidal activity against newly hatched Culex quinquefasciatus larvae; type: in vivo; conditions: 25 ± 1 °C, 80% relative humidity, dead larvae recorded on 2nd, 4th, 6th and 8th days, two sets of replicates, azadirachtin positive control
# Procedure: The insecticidal activity against Culex quinquefasciatus larvae was evaluated according to methods reported in the literature. Newly hatched larvae were housed at 25 ± 1 °C and 80% relative humidity. Two sets of replicates were set up with dimethyl sulfoxide as a negative control, azadirachtin as a positive control, and artificial feed as a blank control. The number of dead larvae was recorded on 2nd, 4th, 6th, and 8th days after treatment.
# [2] = test system: Vibrio harveyi (ATCC 14126); type: cell-based; conditions: V. harveyi ATCC 14126, microplate assay; chloromycetin positive control
# Procedure: Antibacterial activity was determined against nine pathogenic bacteria, including six Gram-positive bacteria—Methicillin-resistant Staphylococcus aureus (ATCC 43300), […], Staphylococcus albus (ATCC 8799), Staphylococcus aureus (ATCC 6538), Bacillus subtilis (ATCC 21332), and […] —and three Gram-negative bacteria—Vibrio parahaemolyticus (ATCC 17802), V. alginolyticus (ATCC 17749), and V. harveyi (ATCC 14126)—by the microplate assay method. Chloromycetin was used as the positive control.
# [3] = cited from earlier work
# Excerpt: (§1) Cyclic pentapeptides, a subclass of cyclic peptides, are usually constructed by five amino acid residues. To date, about 60 cyclic pentapeptides have been characterized. Among them, avellanins A–C were exclusively found in Hamigera avellanea, Hamigera ingelheimensis, and Aspergillus petrakii, respectively. […] During our continuing efforts to identify new bioactive metabolites from mangrove-derived fungi [[20],[21],[ ...
# quorum-sensing = conditions: cited from earlier work
# Excerpt: as §1
compound,measurement,setting,value
"CC[C@H](C)[C@@H]1NC(=O)[C@@H](C)NC(=O)[C@@H](Cc2ccccc2)N(C)C(=O)[C@@H]2CCCCN2C(=O)c2ccccc2NC1=O [compound 2, avellanin E] (cyclo([Pip][dNMeF][dA]I[2Abz]))","LC50, insecticidal activity",[1],86.6 µM
"CC[C@@H]1NC(=O)[C@@H](C)NC(=O)[C@@H](Cc2ccccc2)N(C)C(=O)[C@@H]2CCCN2C(=O)c2ccccc2NC1=O [compound 4, avellanin G] (cyclo(P[dNMeF][dA][Abu][2Abz]))",MIC,[2],5.85 µM
"L-Pro-Ant-L-Ile-D-Ala-N-Me-D-Phe (head to tail) [compound 5, avellanin A, known cyclic pentapeptide isolated from the fungus]",effect on blood pressure,[3],elevates blood pressure
avellanin B [compound 6],effect on activity of antineoplastic drugs,[3],improves the activity of antineoplastic drugs
avellanin C,quorum-sensing inhibitory activity,quorum-sensing,exhibits quorum-sensing inhibitory activity
